Each block holds one molecule with its values, some of them ahead of it.
Key:
[1] = tested on: Tay-Sachs, AB Variant patient-derived fibroblast cells; experiment: Tay-Sachs AB human fibroblast cell assay: lysosomal volume by LysoTracker flow cytometry; assay type: cell-based; settings: for LysoTracker signal relative to untreated (1.00): Tay-Sachs AB Variant fibroblasts, 1 mM, 7 days, n=3
Experimental: FIG. 2 is bar graph showing the effect of acetyl-leucine (referred to as IB1000) and acetyl-leucine-2,3,3,4-d4 (referred to as DIB1000) in a Tay-Sachs AB human fibroblast cell assay. Tay-Sachs, AB Variant patient-derived fibroblast cells were treated with 1 mM acetyl-leucine or acetyl-leucine-2,3,3,4-d4 to compare LysoTracker signals. Untreated; 1.00±0.02, n=3, Acetyl-leucine; 0.97±0.01, n=3, Acetyl-leucine-2,3,3,4-d4; 0.91±0.02, n=3. One-way ANOVA was conducted for statistical analysis. */**p<0.003/0.02. The technique applied in the present study is described in te Vruchte et al., J. Clin. Invest. 3:1320-1328 (2014). Briefly, human fibroblasts from patients with Tay-Sachs Disease, AB Variant were purchased from the NINDS Human Genetic Repository at the Coriell Institute, 403 Haddon Avenue, Camden, N.J., 08103, USA. Fibroblasts or Chinese Hamster Ovary cells were grown in T75 culture flasks, treated for 7 days with compounds, trypsinized, centrifuged (180 g, 5 min), washed twice with 1×PBS, centrifuged again and were stained with 1 ml of 100 nM LysoTracker-green DND-26 (Invitrogen) in PBS (10 min, in dark). Following incubation, cells were centrifuged (800 g, 5 min), resuspended in 0.5 ml of FACS buffer (0.1% BSA, 0.02 M NaN3 in 1×PBS) and kept on ice for a maximum of 1 h prior to flow cytometric analysis (BD Biosciences FACSCanto II or Accuri C6 Plus). The cytometer was calibrated using Cytometer Setup and Tracking beads (BD), and compensation was performed using cells stained with Lysotracker or Propidium Iodide using BD FACSDiva software (BD) or BD Accuri C6 Plus software (BD).

NPC CHO cells = experiment: NPC cellular phenotype assay: lysosomal volume by LysoTracker flow cytometry; assay type: cell-based, Chinese Hamster; settings: for LysoTracker fluorescence, fold change relative to untreated samples (normalised as 1.0): NPC CHO cells, treated 7 days, Mean±SD, n=3, concentration of the compared values not printed in the legend (b616 names 1 mM)
Experimental: FIG. 1 is a line graph showing the effect of acetyl-leucine (referred to as IB1000) and acetyl-leucine-2,3,3,4-d4 (referred to as DIB1000) in a NPC cellular phenotype assay. NPC CHO cells were treated with 1, 10, 100, 1000, and 5000 μM of acetyl-leucine or acetyl-leucine-2,3,3,4-d4 for 7 days. Data shown is Mean±SD of 1-3 biological repeats. LysoTracker fluorescence is expressed as fold change relative to responses obtained from untreated samples (normalised as 1.0). Acetyl-leucine; 0.79±0.05, Acetyl-leucine-2,3,3,4-d4; 0.45±0.03, unpaired t test, Two-tailed test, **p<0.01, n=3. The technique applied in the present study is described in te Vruchte et al., J. Clin. Invest. 3:1320-1328 (2014). Briefly, human fibroblasts from patients with Tay-Sachs Disease, AB Variant were purchased from the NINDS Human Genetic Repository at the Coriell Institute, 403 Haddon Avenue, Camden, N.J., 08103, USA. Fibroblasts or Chinese Hamster Ovary cells were grown in T75 culture flasks, treated for 7 days with compounds, trypsinized, centrifuged (180 g, 5 min), washed twice with 1×PBS, centrifuged again and were stained with 1 ml of 100 nM LysoTracker-green DND-26 (Invitrogen) in PBS (10 min, in dark). Following incubation, cells were centrifuged (800 g, 5 min), resuspended in 0.5 ml of FACS buffer (0.1% BSA, 0.02 M NaN3 in 1×PBS) and kept on ice for a maximum of 1 h prior to flow cytometric analysis (BD Biosciences FACSCanto II or Accuri C6 Plus). The cytometer was calibrated using Cytometer Setup and Tracking beads (BD), and compensation was performed using cells stained with Lysotracker or Propidium Iodide using BD FACSDiva software (BD) or BD Accuri C6 Plus software (BD).

[2] = Pharmacokinetic study, plasma concentration after p.o. administration; assay type: in vivo, male BALB/c mice; settings: for AUC(0-t) / Cmax: male, BALB/c, mouse, plasma, po, 100 mg/kg, male BALB/c mice; for ratio for AUClast, deuterated analyte/non-deuterated analyte / ratio for Cmax, deuterated analyte/non-deuterated analyte: mice
Experimental: Acetyl-leucine, acetyl-L-leucine, acetyl-leucine-2,3,3,4-d4 (1-rac), and acetyl-L-leucine-2,3,3,4-d4 (1) were administered to male BALB/c mice via the oral (p.o) route. Plasma and tissue samples were collected at predetermined time points and analysed using HR/MS.

[3] = plasma analyte after p.o. acetyl-L-leucine 100 mg/kg
[4] = plasma analyte after p.o. acetyl-leucine 100 mg/kg
[5] = deuterated or non-deuterated acetyl-L-leucine administered p.o. 100 mg/kg
[6] = deuterated or non-deuterated acetyl-leucine (racemate) administered p.o. 100 mg/kg
[7] = plasma analyte after p.o. acetyl-L-leucine-2,3,3,4-d4 (1) 100 mg/kg in saline
[8] = plasma analyte after p.o. acetyl-L-leucine-2,3,3,4-d4 (1) 100 mg/kg
[9] = plasma analyte after p.o. acetyl-leucine-2,3,3,4-d4 (1-rac) 100 mg/kg in saline
[10] = plasma analyte after p.o. acetyl-leucine-2,3,3,4-d4 (1-rac) 100 mg/kg

SMILES: CC(=O)NC(CC(C)C)C(=O)O (racemic) [acetyl-leucine, N-acetyl-DL-leucine]
LysoTracker signal relative to untreated (1.00) [1]: 0.97±0.01
LysoTracker fluorescence, fold change relative to untreated samples (normalised as 1.0) (NPC CHO cells): 0.79±0.05 fold change

SMILES: [2H]C(C)(C)C([2H])([2H])[C@]([2H])(NC(C)=O)C(=O)O (racemic) [acetyl-leucine-2,3,3,4-d4, Acetyl-leucine-2,3,3,4-d4]
LysoTracker signal relative to untreated (1.00) [1]: 0.91±0.02
LysoTracker fluorescence level compared to acetyl-leucine ([1]; Tay-Sachs AB Variant human fibroblast cell line, 1 mM vs 1 mM acetyl-leucine): significant reduction
LysoTracker fluorescence level compared to acetyl-leucine (NPC CHO cells; NPC CHO cell line, 1 mM vs 1 mM acetyl-leucine): significant reduction
LysoTracker fluorescence, fold change relative to untreated samples (normalised as 1.0) (NPC CHO cells): 0.45±0.03 fold change

SMILES: CC(=O)N[C@H](CC(C)C)C(=O)O [acetyl-D-leucine, N-acetyl-D-leucine, reference compound]
AUC(0-t) [2, 3]: 573 ng·h/mL
AUC(0-t) [2, 4]: 57800 ng·h/mL

Continued, values first:

ratio for AUClast, deuterated analyte/non-deuterated analyte [2, 5]: 5.50
ratio for Cmax, deuterated analyte/non-deuterated analyte [2, 5]: 7.40
ratio for AUClast, deuterated analyte/non-deuterated analyte [2, 6]: 1.72
ratio for Cmax, deuterated analyte/non-deuterated analyte [2, 6]: 0.59
Cmax [2, 7]: 3230 ng/mL
AUC(0-t) [2, 8]: 3150 ng·h/mL
Cmax [2, 9]: 50600 ng/mL
AUC(0-t) [2, 10]: 99600 ng·h/mL
SMILES: [2H]C(C)(C)C([2H])([2H])[C@@]([2H])(NC(C)=O)C(=O)O [acetyl-D-leucine-2,3,3,4-d4]

AUC(0-t) [2, 3]: 11400 ng·h/mL
AUC(0-t) [2, 4]: 2600 ng·h/mL
SMILES: CC(=O)N[C@@H](CC(C)C)C(=O)O [acetyl-L-leucine, N-acetyl-L-leucine, reference compound]

ratio for AUClast, deuterated analyte/non-deuterated analyte [2, 5]: 1.61
ratio for Cmax, deuterated analyte/non-deuterated analyte [2, 5]: 1.75
ratio for AUClast, deuterated analyte/non-deuterated analyte [2, 6]: 1.32
ratio for Cmax, deuterated analyte/non-deuterated analyte [2, 6]: 1.14
Cmax [2, 7]: 29300 ng/mL
AUC(0-t) [2, 8]: 18200 ng·h/mL
Cmax [2, 9]: 3880 ng/mL
AUC(0-t) [2, 10]: 3430 ng·h/mL
SMILES: [2H]C(C)(C)C([2H])([2H])[C@]([2H])(NC(C)=O)C(=O)O [acetyl-L-leucine-2,3,3,4-d4, Acetyl-L-leucine-2,3,3,4-d4]
